Measurements: patent US20180200331A1, “BST-2 AS A THERAPEUTIC TARGET AND DIAGNOSTIC MARKER FOR BREAST CANCER GROWTH AND METASTASIS” (University of Iowa Research Foundation, priority 2015, published 2018)
Where two headings read alike, the source gives them in different places. No end group written: not given here.

What was measured:
[1] = Half-life of B49nc
From the text: We generated a truncated form of B49 called “B49nc” having the sequence […] (SEQ ID NO:14).

[2] = system: MDA-MB-231 cells; assay: Cancer cell to cancer cell adhesion assay on MDA-MB-231 shControl monolayers; type: cell-based, human; conditions: monolayers blocked with 200 ng/well for 4 hours; adhesion 4 hours
Protocol: FIG. 46. […] Moreover, MDA-mb-231 SHcONTROL CELLS WERE ADDED TO mda-mb-231 ShBST-2 monolayers (on shBST-2). (Each data point corresponds to six different wells analyzed. Error bars correspond to SEM. Significance was taken at P<0.0005*** or P<0.0001****.
MDA-MB-231 cells expressing shBST-2 or shControl were plated to confluency in a 96-well plate. MDA-MB-231 shControl cells were blocked with water (Vehicle), 200 ng/well of recombinant BST-2 (Sino Biological Inc.), 200 ng/well of B49 peptide or 200 ng of B49nc peptide for 4 hours. Wells were washed twice with PBS and then PKH67 labeled MDA-MB-231 shControl cells were added to wells at 25,000 cells/well. Cells were allowed to adhere for 4 hours at 37° C. Non-adhered cells were washed off with PBS and plates were read at 485 nm/535 nm (excitation/emission) wavelengths using a Tecan Infinite M200 Pro plate reader (Tecan). Values are represented as relative fluorescence intensity (RFI).

[3] = system: BST-2; assay: shRNA knockdown of BST-2 in E0771 and 4T1 cells; type: cell-based, mouse; conditions: E0771 and 4T1 cells stably transduced
From the text: E0771 and 4T1 cells were stably transduced with a construct expressing LV-CMV-firefly luciferase or an empty vector construct using lipofectamine following the manufacturer's instructions (Life Technologies, Carlsbad, Calif., USA). Stable transfectants were then transduced with lentiviral particles carrying BST-2-targeting sh137: CCGGC […] (SEQ ID NO:3); sh413: […] TTCTCAAGCTTTTTG (SEQ ID NO:4); or a non-targeting shControl: […] (SEQ ID NO:5) using a previously described protocol. Stable cells were generated by selection with the appropriate drug. The short hairpin RNA (shRNA) constructs were purchased from Sigma-Aldrich (St Louis, Mo., USA) (SHCLND-NM_198095) and lentiviral particles were generated at the Gene Transfer Vector Core at the University of Iowa.
Cell monolayers were washed with PBS and treated with Versene (Life Technologies). […] Stained cells were quantified using a FACSCalibur flow cytometer (BD Biosciences, San Jose, Calif., USA). […] Fluorescence-activated cell sorting (FACS) data were analyzed by Flowjo software (TreeStar, Ashland, Oreg., USA). […]
Western blots were performed as previously described. […] Band detection and quantification were carried out with the Odyssey Infrared Imaging System (LI-COR Biosciences, Lincoln, Nebr., USA).

[4] = system: mammary cancer cells; assay: Transformation assay (soft agar colony formation); type: cell-based, mouse; conditions: compared to shControl
Protocol: Agar was mixed in Roswell Park Memorial Institute medium (RPMI) with 20% FBS. A total of 500 μl of 0.5% agar was added to 24-well plate and allowed to solidify. Cells were plated at 1,250 cells/well in 500 μl of 0.35% agarose. Some 250 μl of the appropriate growth medium was added on top of the agarose layer. Growth medium was replaced twice a week. Colonies were stained with crystal violet and imaged. Colonies from five different fields were counted and averaged.

[5] = system: mammary cancer cells; assay: Scratch assay; type: cell-based, mouse; conditions: 6 h and 24 h
Protocol: Confluent monolayers of cancer cells plated in 12-well plates were scratched using a pipette tip. Fresh medium was added to the wells. Cells were allowed to migrate for 0, 6 or 24 hours before fixation (4% paraformaldehyde (PFA) for 45 minutes). Fixed cells were washed (1×PBS) and imaged with a Nikon Eclipse Ti microscope adjusted with a Nikon digital sight camera (Nikon, Tokyo, Japan). Images were processed and migrated cells counted using Image J software.

[6] = system: E0771 cells; assay: Boyden chamber assay; type: cell-based, mouse; conditions: 20 hours
Protocol: The apical chamber of 24-well cell culture inserts (Merck Millipore, Billerica, Mass., USA) were seeded with previously starved sh137, sh413 or shControl transduced E0771 cells (150,000) in serum-free medium. Culture medium containing 30% FBS was added to the basal chamber of the unit and cells were allowed to migrate through the membranous barrier for 20 hours at 37° C. Non-migrated cells were washed off, migrated cells were fixed with 4% PFA for 5 minutes, washed twice with 1×PBS, permeabilized with 100% methanol for 25 minutes, labeled with Giemsa stain (for 15 minutes at room temperature) and imaged using a Nikon Eclipse Ti microscope adjusted with an X-cite series 120 LED fluorescence microscope light source and a Nikon digital sight camera. Images were processed using Image J software. Cells from five different fields were counted and averaged.

[7] = system: E0771 or 4T1 cells; assay: Cell invasion assay (Matrigel); type: cell-based, mouse; conditions: 24 h
Protocol: The apical chamber of 24-well cell culture inserts (Merck Millipore) were coated with 3 mg/ml of Matrigel (100 μl) (Sigma-Aldrich) and allowed to solidify for 5 hours. A total of 100,000 sh413- or shControl-transduced E0771 or 4T1 cells in serum-free medium were plated on top of the Matrigel layer. Culture medium containing 10% FBS and 5 μg/ml fibronectin (adhesive substrate) (Sigma-Aldrich) was added to the basal chamber of the unit (600 μl) and cells were allowed to invade through the membranous barrier for 24 hours at 37° C. Noninvasive cells were washed off; invasive cells were fixed with 4% PFA, permeabilized with 100% methanol, labeled with Giemsa stain and imaged as described in the previous paragraph. Images were processed using Image J software. Cells from five different fields were counted and averaged.

[8] = system: E0771 and 4T1 cells; assay: BrdU assay; type: cell-based, mouse
Protocol: A total of 5,000 cells were plated in 96-well plates for 24 hours. Bromodeoxyuridine or 5-bromo-2′-deoxyuridine (BrdU) (Calbiochem, Billerica, Mass., USA) assay was carried out according to the manufacturer's instructions. Absorbance at 450 nm was read using a Tecan Infinite plate reader. In parallel, 150,000 cells were plated in 24-well plates for 24 hours. Cells were incubated with BrdU label (1:2000) for 20 hours, treated with a fixative/denaturing solution (30 minutes) and incubated with an anti-BrdU antibody (1:1000) and rat anti-mouse BST-2 antibody (1:200, eBioscience) for 1 hour at room temperature. Cells were washed and incubated with Alexa Fluor 594 anti-rat (Invitrogen, Waltham, Mass., USA) and Alexa Fluor 488 anti-mouse (Invitrogen) secondary antibodies for 30 minutes at room temperature. Cells were stained with 4′,6-diamidino-2-phenylindole (DAPI)-containing Vectashield (Vector Laboratories, Burlingame, Calif., USA) and imaged using a Zeiss 710 confocal microscope (Carl Zeiss, Oberkochen, Germany). Images were processed using Image J software. BrdU label, fixative/denaturing solution, and anti-BrdU antibody were from BrdU (Calbiochem) assay.

[9] = system: E0771 cells; assay: MTT assay, E0771; type: cell-based, mouse
Protocol: A total of 5,000 cells stably expressing sh137, sh413, or shControl were plated in 96-well plates. Cells were then incubated with 5 mg/ml MTT reagent for 3.5 hours followed by addition of MTT solvent (0.1% NP-40 and 4 mM HCl in isopropanol) and rocking for 15 minutes. Absorbance at 590 nm was read using a Tecan Infinite M200 Pro plate reader.

[10] = system: BST-2; conditions: cited from earlier work
[11] = system: Claudin-6 (CLDN6); conditions: all cell types, GEO datasets; cited from earlier work
[12] = system: BST-2; assay: 5-azacytidine treatment, BST-2 RT-qPCR and flow cytometry; type: cell-based, human; conditions: 1 uM for 5 days
Protocol: Cell lines of interest were plated at 150,000 cells/well in a 6-well plate and treated with DMSO (vehicle) or 1 μM of 5-azacytidine (5-azaC, Sigma Aldrich) for 5 days. Cells were harvested using 0.25% trypsin-EDTA (Mediatech, Corning, N.Y., USA). Post-incubation, 8 ml of 10% FBS-containing RPMI media (Life Technologies) was added and cells were centrifuged. Media was aspirated and individual cells were resuspended in 2% FBS-containing PBS (Life Technologies). Cell suspension was passed through a […] cell strainer (Falcon). Cells were incubated at 4° C. for 1 hour with APC-conjugated anti-BST-2 primary antibodies or appropriate IgG (Ebioscience) and washed with 1×PBS. After washing, cells were incubated with the fluorescent intercalator-7-aminoactinomycin D (7-AAD) (BioLegend) at 4° C. for 30 minutes to exclude dead cells. Stained cells were quantified using a FACS Calibur flow cytometer (BD). 10,000 events were collected per sample and FACS data were analyzed and plotted using Flowjo software (TreeStar).
(§1) Human normal and breast cancer cell lines were plated at 150,000 cells/well in a 6-well plate and treated with DMSO (vehicle) or 1 μM of 5-azacytidine (5-azaC, Sigma Aldrich) for 5 days. Cells were lifted using Versene (a gentle cell dissociator, Life Technologies), washed with PBS, pelleted and stored at −20° C. until required for analysis. RNA was isolated from frozen cells using the RNeasy mini kit (Qiagen) according to manufacturer's instructions. Equivalent amounts of RNA were treated with DNase (Qiagen). A portion of RNA was subjected to cDNA synthesis (ABI) as previously described. RNA concentration and purity were assessed at 260/280 nm using the spectrophotometer. Using synthesized cDNA, sequence-specific primers were used to amplify BST-2 [4] and GAPDH [13,48]. Claudin-6 was amplified with (F: […], R: […]) primer pair. RT-qPCR was carried out with an ABI 7500 FAST thermal cycler in triplicates as previously described.

[13] = system: Claudin-6 (CLDN6); assay: 5-azacytidine treatment, CLDN6 RT-qPCR; type: cell-based, human; conditions: HMLE, MCF-7, SK-BR-3, MDA-MB-231 cells, 1 uM for 5 days
Protocol: as §1

TIKANSEACRDGLRAVMECRNVTHLLQQELTEAQKGFQDVEAQAATCNHTVMA (cysteines drawn unpaired) [B49nc]
half-life [1]: ~20 h | cancer cell adhesion (relative fluorescence intensity) [2]: inhibits cancer cell adhesion

sh137: BST-2-targeting shRNA (SEQ ID NO:3), delivered by lentiviral particles (CCGGCGCGATCTTGGTGGTCCTGTTCTCGAGAACAGGACCACCAAGATCGCGTTTTTG)
BST-2 expression [3]: reduced BST-2 expression | colony numbers in soft agar [4]: reduced colony numbers | migration into scratch wound [5]: showed some migration | rate of cell migration (Boyden chamber) [6]: significantly reduced rate of cell migration | invasion through Matrigel [7]: reduced the ability of the cells to invade the basement membrane | cell proliferation (BrdU incorporation) [8]: no effect on cell proliferation | cell viability (MTT) [9]: equally viable

Nc1ncn([C@H]2C[C@H](O)[C@@H](CO)O2)c(=O)n1 [DAC, 2′-deoxy-5-azacytidine]
BST-2 mRNA expression ([10]; HB2 cells, GEO GSE28976): increased BST-2 mRNA expression | BST-2 mRNA expression ([10]; MCF-7 cells, GEO GSE36683): increased BST-2 mRNA expression | BST-2 levels ([10]; MDA-MB-231 cells, GEO GSE28976): did not show any increase | BST-2 levels ([10]; SK-BR-3 cells, GEO GSE28976): did not show any increase | CLDN6 mRNA levels [11]: induced in all cell types

Nc1ncn([C@@H]2O[C@H](CO)[C@@H](O)[C@H]2O)c(=O)n1 [5-AzaC, 5-azacytidine]
BST-2 levels (RNA and protein) ([12]; HMLE cells): significant increase | BST-2 levels (RNA and protein) ([12]; MCF-7 cells): significant increase | BST-2 mRNA and protein levels ([12]; MDA-MB-231 cells): unchanged | BST-2 mRNA and protein levels ([12]; SK-BR-3 cells): unchanged | CLDN6 mRNA level [13]: induced in all cell types
